US20090075888A1, “Cardiovascular and Brain Cell Therapy Using Intracellular Ryanodine Receptor Modulation by the Estrogen Receptor Beta” (University of North Texas Health Science Center at Fort …, priority 2007, published 2009)

Target: mouse brain RyR2 (Mus musculus, UniProt E9Q401)
Experiment: Single-channel current recordings of RyR2 incorporated in artificial lipid bilayer

mouse brain RyR2, sequence (E9Q401 whole entry): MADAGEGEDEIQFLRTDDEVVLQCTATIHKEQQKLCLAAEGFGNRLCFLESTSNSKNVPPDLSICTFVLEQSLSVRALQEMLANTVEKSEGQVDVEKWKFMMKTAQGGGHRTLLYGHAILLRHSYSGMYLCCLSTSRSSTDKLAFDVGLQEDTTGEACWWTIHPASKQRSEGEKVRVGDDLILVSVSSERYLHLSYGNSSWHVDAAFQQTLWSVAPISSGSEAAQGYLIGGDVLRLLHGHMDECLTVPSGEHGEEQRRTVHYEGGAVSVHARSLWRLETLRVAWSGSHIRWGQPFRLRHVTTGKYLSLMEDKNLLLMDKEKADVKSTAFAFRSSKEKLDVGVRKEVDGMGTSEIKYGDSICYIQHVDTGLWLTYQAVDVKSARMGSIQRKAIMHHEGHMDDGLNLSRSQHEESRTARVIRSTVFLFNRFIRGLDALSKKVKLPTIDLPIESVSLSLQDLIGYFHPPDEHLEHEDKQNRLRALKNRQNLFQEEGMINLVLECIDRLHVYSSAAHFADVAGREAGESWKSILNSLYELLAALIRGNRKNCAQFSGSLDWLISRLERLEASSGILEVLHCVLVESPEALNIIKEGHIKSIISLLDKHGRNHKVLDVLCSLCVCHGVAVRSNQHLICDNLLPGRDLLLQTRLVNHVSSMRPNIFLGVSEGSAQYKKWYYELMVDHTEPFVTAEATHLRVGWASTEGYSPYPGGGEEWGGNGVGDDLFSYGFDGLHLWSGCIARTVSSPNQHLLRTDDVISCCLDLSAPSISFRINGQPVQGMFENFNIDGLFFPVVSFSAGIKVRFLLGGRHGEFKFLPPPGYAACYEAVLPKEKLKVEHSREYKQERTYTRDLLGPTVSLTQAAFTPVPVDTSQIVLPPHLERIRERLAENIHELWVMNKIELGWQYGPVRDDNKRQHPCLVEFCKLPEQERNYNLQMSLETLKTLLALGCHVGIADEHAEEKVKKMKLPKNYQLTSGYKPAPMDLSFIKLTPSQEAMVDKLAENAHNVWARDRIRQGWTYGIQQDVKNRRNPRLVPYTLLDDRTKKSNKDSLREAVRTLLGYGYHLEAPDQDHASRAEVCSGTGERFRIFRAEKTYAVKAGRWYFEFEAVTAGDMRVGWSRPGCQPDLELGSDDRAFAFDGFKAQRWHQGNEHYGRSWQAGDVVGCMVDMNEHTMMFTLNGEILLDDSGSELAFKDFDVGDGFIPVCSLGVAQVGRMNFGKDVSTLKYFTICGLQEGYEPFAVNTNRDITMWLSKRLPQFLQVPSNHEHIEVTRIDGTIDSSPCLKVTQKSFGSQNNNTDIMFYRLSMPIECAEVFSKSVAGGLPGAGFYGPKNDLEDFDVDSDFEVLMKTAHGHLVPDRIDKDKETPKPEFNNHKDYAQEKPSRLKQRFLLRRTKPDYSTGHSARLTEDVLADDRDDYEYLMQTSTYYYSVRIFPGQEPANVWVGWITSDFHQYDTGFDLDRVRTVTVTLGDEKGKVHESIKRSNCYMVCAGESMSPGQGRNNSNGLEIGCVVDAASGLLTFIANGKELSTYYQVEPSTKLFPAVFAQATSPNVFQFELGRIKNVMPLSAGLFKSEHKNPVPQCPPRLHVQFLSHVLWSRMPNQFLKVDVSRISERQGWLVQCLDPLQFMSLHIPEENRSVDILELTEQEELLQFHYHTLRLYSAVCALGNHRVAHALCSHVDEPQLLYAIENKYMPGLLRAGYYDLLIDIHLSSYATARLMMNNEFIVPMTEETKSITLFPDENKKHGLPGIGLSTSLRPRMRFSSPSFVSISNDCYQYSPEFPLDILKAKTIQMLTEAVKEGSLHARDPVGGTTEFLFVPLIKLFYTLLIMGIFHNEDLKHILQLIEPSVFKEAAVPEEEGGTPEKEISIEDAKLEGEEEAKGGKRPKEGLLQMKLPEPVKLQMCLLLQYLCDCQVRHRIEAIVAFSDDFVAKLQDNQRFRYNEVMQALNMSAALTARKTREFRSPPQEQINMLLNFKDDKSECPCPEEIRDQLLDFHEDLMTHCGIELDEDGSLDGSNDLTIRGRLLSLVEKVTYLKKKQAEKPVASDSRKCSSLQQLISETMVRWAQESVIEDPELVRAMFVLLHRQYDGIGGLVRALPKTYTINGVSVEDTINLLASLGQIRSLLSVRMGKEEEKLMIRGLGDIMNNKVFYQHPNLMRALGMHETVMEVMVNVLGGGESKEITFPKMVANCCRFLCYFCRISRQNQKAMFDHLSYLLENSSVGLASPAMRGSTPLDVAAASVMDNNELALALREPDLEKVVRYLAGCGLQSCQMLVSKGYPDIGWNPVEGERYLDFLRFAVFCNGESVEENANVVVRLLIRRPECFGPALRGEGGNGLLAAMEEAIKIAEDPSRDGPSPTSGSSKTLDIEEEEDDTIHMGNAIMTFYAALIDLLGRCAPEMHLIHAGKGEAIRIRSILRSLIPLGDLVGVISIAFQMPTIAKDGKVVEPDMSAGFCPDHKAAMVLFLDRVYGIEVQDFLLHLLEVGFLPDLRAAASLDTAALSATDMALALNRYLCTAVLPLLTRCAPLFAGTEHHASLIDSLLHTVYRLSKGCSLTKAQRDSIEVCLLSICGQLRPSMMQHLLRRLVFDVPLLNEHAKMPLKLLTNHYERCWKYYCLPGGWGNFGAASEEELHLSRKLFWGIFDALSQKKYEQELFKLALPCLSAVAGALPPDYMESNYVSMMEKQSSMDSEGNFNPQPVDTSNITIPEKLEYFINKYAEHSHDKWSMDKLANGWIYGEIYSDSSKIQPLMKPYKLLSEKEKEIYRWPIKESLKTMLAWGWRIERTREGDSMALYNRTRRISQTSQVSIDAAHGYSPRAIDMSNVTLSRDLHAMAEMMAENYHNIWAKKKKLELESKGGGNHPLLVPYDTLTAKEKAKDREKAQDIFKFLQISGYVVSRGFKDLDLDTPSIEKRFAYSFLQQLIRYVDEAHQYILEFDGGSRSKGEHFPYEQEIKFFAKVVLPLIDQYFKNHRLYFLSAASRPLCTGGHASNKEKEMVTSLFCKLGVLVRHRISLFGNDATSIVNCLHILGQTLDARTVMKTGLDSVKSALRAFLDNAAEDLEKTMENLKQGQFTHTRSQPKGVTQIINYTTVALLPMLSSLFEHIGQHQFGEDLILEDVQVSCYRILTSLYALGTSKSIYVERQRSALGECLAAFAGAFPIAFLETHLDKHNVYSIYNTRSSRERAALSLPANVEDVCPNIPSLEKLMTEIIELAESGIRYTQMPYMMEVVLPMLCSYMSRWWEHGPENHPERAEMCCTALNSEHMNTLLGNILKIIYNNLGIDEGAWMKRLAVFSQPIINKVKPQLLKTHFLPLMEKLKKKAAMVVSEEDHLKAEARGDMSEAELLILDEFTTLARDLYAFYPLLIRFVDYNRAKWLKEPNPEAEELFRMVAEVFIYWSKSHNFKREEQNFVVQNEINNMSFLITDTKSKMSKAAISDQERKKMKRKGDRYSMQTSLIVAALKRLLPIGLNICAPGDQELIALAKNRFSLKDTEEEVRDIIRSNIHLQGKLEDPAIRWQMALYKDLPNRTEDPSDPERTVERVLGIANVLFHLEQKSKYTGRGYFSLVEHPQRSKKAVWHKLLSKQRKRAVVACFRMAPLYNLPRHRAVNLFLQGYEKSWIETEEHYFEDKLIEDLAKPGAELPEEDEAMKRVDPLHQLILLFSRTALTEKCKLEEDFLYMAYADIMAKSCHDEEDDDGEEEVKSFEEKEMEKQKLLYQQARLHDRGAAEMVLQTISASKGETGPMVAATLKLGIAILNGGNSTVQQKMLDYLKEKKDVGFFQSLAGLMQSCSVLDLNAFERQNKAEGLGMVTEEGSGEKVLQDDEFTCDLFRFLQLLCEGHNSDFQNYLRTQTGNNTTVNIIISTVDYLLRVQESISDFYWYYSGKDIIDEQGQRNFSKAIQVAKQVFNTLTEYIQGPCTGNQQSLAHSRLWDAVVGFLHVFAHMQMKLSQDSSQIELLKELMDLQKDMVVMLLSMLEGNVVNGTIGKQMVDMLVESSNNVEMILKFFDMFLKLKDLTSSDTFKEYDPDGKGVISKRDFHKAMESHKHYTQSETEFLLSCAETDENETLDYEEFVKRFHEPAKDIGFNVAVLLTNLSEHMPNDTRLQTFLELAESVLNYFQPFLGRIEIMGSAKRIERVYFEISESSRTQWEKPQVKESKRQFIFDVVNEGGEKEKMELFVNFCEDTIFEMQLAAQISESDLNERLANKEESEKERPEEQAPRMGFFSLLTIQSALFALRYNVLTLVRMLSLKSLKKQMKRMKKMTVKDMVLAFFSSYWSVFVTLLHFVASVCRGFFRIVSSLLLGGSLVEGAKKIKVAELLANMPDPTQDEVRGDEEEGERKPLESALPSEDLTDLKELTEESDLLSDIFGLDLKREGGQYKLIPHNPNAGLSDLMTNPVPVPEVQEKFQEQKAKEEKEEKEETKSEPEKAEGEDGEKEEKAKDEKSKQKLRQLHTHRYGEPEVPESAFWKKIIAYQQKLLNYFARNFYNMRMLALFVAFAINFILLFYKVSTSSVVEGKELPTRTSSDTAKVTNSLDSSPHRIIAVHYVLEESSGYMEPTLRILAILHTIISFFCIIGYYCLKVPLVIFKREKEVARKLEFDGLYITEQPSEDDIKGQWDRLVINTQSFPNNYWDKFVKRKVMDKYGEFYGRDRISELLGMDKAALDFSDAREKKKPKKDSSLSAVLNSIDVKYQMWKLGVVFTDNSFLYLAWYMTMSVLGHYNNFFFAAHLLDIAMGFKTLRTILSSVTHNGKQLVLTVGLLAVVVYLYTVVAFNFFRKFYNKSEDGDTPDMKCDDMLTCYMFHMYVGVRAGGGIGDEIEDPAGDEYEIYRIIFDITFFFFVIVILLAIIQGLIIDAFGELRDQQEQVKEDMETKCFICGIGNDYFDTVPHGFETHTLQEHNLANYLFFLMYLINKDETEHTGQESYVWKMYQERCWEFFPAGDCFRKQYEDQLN

block of ERβ-activated RyR2 single channel currents (20 μM Ruthenium Red after ERβ (FIG. 1A)): blocked | RyR channel block (25 μM ruthenium red after ERβ (FIG. 10A, 11A)): complete channel block
Structure (SMILES): N.N.N.N.N.N.N.N.N.N.N.N.N.N.[Cl-].[Cl-].[Cl-].[Cl-].[Cl-].[Cl-].[O-2].[O-2].[Ru+3].[Ru+3].[Ru+4] [Ruthenium Red]
